SMILES strings stand for the structures.

For orientation: inhibition means the change of the read-out against control, counted positive when it falls.

For the first test, the target named is BTK (Homo sapiens, UniProt Q06187). In words: biochemical. As to conditions: read-out: BTK inhibition (%).
BTK, sequence (Q06187 402-655 limits assumed): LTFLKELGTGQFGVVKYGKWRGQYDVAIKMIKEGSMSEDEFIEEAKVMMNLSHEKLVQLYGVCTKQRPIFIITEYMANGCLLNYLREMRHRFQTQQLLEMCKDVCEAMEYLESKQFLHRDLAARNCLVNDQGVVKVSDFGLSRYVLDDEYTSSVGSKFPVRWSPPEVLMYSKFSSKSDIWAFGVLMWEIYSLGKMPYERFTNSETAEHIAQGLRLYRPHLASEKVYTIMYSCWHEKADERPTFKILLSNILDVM
For `C[C@]12N[C@H](Cc3ccccc31)c1ccccc12` [PCM-0064989], the inhibition at 10 µM amounted to 3.9%. Same read-out and setting: the value for `ClCCN(Cc1ccccc1)Cc1ccccc1` [PCM-0216162] was -20.1%.

Still in this test, the particulars now being: read-out: BTK inhibition (%), 0.75 uM BTK, […] probe 3l, 15 min preincubation.
Take `NCCCC[C@H](NC(=O)[C@@H]1CCCN1C(=O)[C@@H]1CSSC[C@H](N)C(=O)N[C@@H](Cc2ccc(O)cc2)C(=O)N[C@@H](Cc2ccccc2)C(=O)N[C@@H](CCC(N)=O)C(=O)N[C@@H](CC(N)=O)C(=O)N1)C(=O)NCC(N)=O` [PCM-0216267]: the inhibition at 10 µM is -19.6%. The same measure, in the same setting: for `Cc1cc(-c2cc(C)c(NCCCS(=O)(=O)O)c(C)c2)cc(C)c1N` [PCM-0216076] the value was 7.7%. `CCOC(=O)COc1ccc(/C=C2\SC(=S)NC2=O)cc1OC` [PCM-0215662]: the inhibition at 10 µM came out at 84.2%.

Turning to `Cc1onc(-c2c(F)cccc2Cl)c1C(=O)N[C@@H]1C(=O)N2[C@@H]1SC(C)(C)[C@@H]2C(=O)O` [PCM-0216122], the inhibition at 10 µM is -1.6%.

On to `NCCCCCC(=O)O` [PCM-0064402], for which the inhibition at 10 µM was -2.3%. On the same count and under the same terms, for `COc1cc2c(cc1O)[C@@H](Cc1ccc(O)c(Oc3ccc(C[C@@H]4c5cc(OC)c(OC)cc5CCN4C)cc3)c1)N(C)CC2` [PCM-0216427] the value was 10.8%.

In the case of `O=C(O)CC[C@@H](O)C(=O)O` [PCM-0215516], the inhibition at 10 µM was -13.6%. As to `Cn1c(N2CCCCS2(=O)=O)nc(C(=O)NCc2ccc(F)cc2)c(O)c1=O` [PCM-0094999], the inhibition at 10 µM was -20.2%. Still for that read-out and setting: the value for `CC/C(=C(\c1ccc(O)cc1)c1ccc(OCCNC)cc1)c1ccccc1` [PCM-0215485] was 14.7%; that for `OC1CC2CCC(C1)N2` (stereo not drawn) [PCM-0215141] was -1.6%. Still for that read-out and setting: the value for `COc1ccc2c(c1OC)CC1c3c(cc4c(c3-2)OCO4)CCN1C` (stereo not drawn) [PCM-0216450] was 0.8%; that for `Cn1cnc(-c2cc3nccc(Oc4ccc(NC(=S)NC(=O)Cc5ccccc5)cc4F)c3s2)c1` [PCM-0094974] was -6.9%; that for `CNc1nc(-c2ccc3c(N)n[nH]c3c2)cc(N2C[C@@H](C(=O)NC3CCCCC3)CC[C@H]2C)n1` [PCM-0095768] was 24.1%.

For the compound `CC1=C(C(=O)O)N2C(=O)[C@@H](NC(=O)[C@H](N)c3ccccc3)[C@H]2SC1` [PCM-0095179], the inhibition at 10 µM stood at 4.3%. On the same count and under the same terms, the value for `CN(C)[C@@H](CCOc1cccc2ccccc12)c1ccccc1` [PCM-0095178] was 6.2%; that for `CC1(C)CCC(C)(C)c2cc(NC(=O)c3ccc(C(=O)O)cc3)ccc21` [PCM-0214790] was -18.7%. On the same count and under the same terms, the value for `CO[C@H]1C(=O)[C@]2(C)[C@@H](OC)C[C@H]3OC[C@@]3(OC(C)=O)[C@H]2[C@H](OC(=O)c2ccccc2)[C@]2(O)C[C@H](OC(=O)[C@H](O)[C@@H](NC(=O)OC(C)(C)C)c3ccccc3)C(C)=C1C2(C)C` [PCM-0214715] was -14.8%; that for `CCn1c(=O)c(-c2ccn[nH]2)cc2c(C)nc(N)nc21` [PCM-0215577] was 7.6%. Still for that read-out and setting: the value for `Cc1onc(-c2c(Cl)cccc2Cl)c1C(=O)N[C@@H]1C(=O)N2[C@@H]1SC(C)(C)[C@@H]2C(=O)O` [PCM-0214747] was 9.3%. On to `CN1C[C@@H]2C[C@H]1CN2c1cc2c(cc1F)c(=O)c(C(=O)O)cn2C1CC1` [PCM-0095547], for which the inhibition at 10 µM is 10.2%. On to `Cn1cc(-c2[nH]c3cc(NC(=O)[C@H](N)C4CCCCC4)cc4c3c2C=NNC4=O)cn1` [PCM-0095372], for which the inhibition at 10 µM is 111%.

With `NS(=O)(=O)c1cc(Cl)c(Cl)c(S(N)(=O)=O)c1` [PCM-0086380], the inhibition at 10 µM was -4.7%. For the compound `Cc1ccc2nc(CN(CCN(Cc3nc4ccc(C)cc4[nH]3)Cc3nc4ccc(C)cc4[nH]3)Cc3nc4ccc(C)cc4[nH]3)[nH]c2c1` [PCM-0215616], the inhibition at 10 µM worked out at 95.8%. On to `NC[C@@H]1O[C@H](O[C@H]2[C@@H](O)[C@H](O[C@@H]3[C@@H](O)[C@H](N)C[C@H](N)[C@H]3O[C@H]3O[C@H](CO)[C@@H](O)[C@H](O)[C@H]3N)O[C@@H]2CO)[C@H](N)[C@@H](O)[C@@H]1O` [PCM-0215214], for which the inhibition at 10 µM turned out to be 5.1%.

For `CC(C)C[C@H](NC(=O)CNC(=O)[C@H](Cc1ccc(O)cc1)NC(=O)[C@H](CO)NC(=O)[C@H](Cc1c[nH]c2ccccc12)NC(=O)[C@H](Cc1cnc[nH]1)NC(=O)[C@@H]1CCC(=O)N1)C(=O)N[C@@H](CCCN=C(N)N)C(=O)N1CCC[C@H]1C(=O)NCC(N)=O` [PCM-0216273], the inhibition at 10 µM was -5.1%. On the same count and under the same terms, the value for `O=C(O)c1cc(N=Nc2ccc(O)c(C(=O)O)c2)ccc1O` [PCM-0214745] was 17.2%; that for `Cc1cc(/C=C/C#N)cc(C)c1Nc1ccnc(Nc2ccc(C#N)cc2)n1` [PCM-0215269] was 19.3%.

As to `C#Cc1cccc(Nc2ncnc3cc(OC)c(OCCCCCCC(=O)NO)cc23)c1` [PCM-0095078], the inhibition at 10 µM was determined as 87.6%. `O=C(Nc1cccc2c(=O)cc(-c3nn[nH]n3)oc12)c1ccc(OCCCCc2ccccc2)cc1` [PCM-0095155]: the inhibition at 10 µM worked out at 73.8%.

Turning to `C[C@@H](N)c1ccc(C(=O)Nc2ccnc3[nH]ccc23)cc1` [PCM-0215750], the inhibition at 10 µM was -30.3%.

As for `CN[C@@H]1[C@@H](O)[C@@H](O[C@@H]2[C@@H](O)[C@H](O[C@H]3O[C@H](CN)[C@@H](O)[C@H](O)[C@H]3O)[C@@H](N)C[C@H]2NC(=O)[C@@H](O)CN)OC[C@]1(C)O` [PCM-0215401], the inhibition at 10 µM stood at 4.3%.

With `Cn1cc(-c2ccc3ncc(Cc4ccc5ncccc5c4)n3n2)cn1` [PCM-0095521], the inhibition at 10 µM is -16.6%.

With `CC(C)(C)c1nc(-c2cccc(NS(=O)(=O)c3c(F)cccc3F)c2F)c(-c2ccnc(N)n2)s1` [PCM-0095418], the inhibition at 10 µM came out at 39.3%.

Turning to `CC(C)c1ccc(CO)cc1` [PCM-0216002], the inhibition at 10 µM was -6.2%. Consider `Cc1cc(NS(=O)(=O)c2ccc(N)cc2)nc(C)n1` [PCM-0216097], for which the inhibition at 10 µM amounted to 11%. The same measure, in the same setting: the value for `Cn1nnc(-c2ccc(-c3ccc(N4C[C@H](CO)OC4=O)cc3F)cn2)n1` [PCM-0216559] was -12.4%; that for `Nc1nc(NCCNc2ncc(-n3ccnc3)c(-c3ccc(Cl)cc3Cl)n2)ccc1[N+](=O)[O-]` [PCM-0095481] was 20.7%. Still for that read-out and setting: for `CN1CCC(CNc2ccc3ncc(-c4cccc(OC(F)(F)F)c4)n3n2)CC1` [PCM-0095238] the value was 45.5%; for `N[C@@H](CC(=O)N1CCn2c(nnc2C(F)(F)F)C1)Cc1cc(F)c(F)cc1F` [PCM-0214812], -1.6%. Consider `CNCC(=O)O` [PCM-0215710], for which the inhibition at 10 µM is -11.1%. Still for that read-out and setting: the value for `S=C(N/N=C1\CCCc2cccnc21)N1CCN(c2ccccn2)CC1` [PCM-0215896] was 20.1%; that for `CC(COc1ccccc1)N(CCCl)Cc1ccccc1` (stereo not drawn) [PCM-0086553] was 17.1%. Still for that read-out and setting: for `Oc1ccc(OC2CCCCO2)cc1` (stereo not drawn) [PCM-0095551] the value was 11.7%. On the same count and under the same terms, for `O=C(NCc1ccc(Oc2ccccc2)cc1)c1nc(-c2cc(Br)c(O)c(Br)c2)no1` [PCM-0215261] the value was 94.2%.

As for `C[C@]12C[C@@H](O)[C@@H]3C[C@@]1(O[C@@H]1O[C@H](CO)[C@@H](O)[C@H](O)[C@H]1O)[C@]3(COC(=O)c1ccccc1)C(=O)O2` [PCM-0216349], the inhibition at 10 µM is -12.4%.

`OC[C@H]1O[C@@H](Oc2c(O)cc(O)cc2/C=C/c2ccc(O)cc2)[C@H](O)[C@@H](O)[C@@H]1O` [PCM-0215025]: the inhibition at 10 µM was found to be 9.7%. The same measure, in the same setting: the value for `CC(=O)OCc1ccccc1` [PCM-0216204] was 10.8%; that for `C[C@@](Cc1ccc(O)c(O)c1)(NN)C(=O)O` [PCM-0065259] was -14.8%; that for `Cn1cnc2c(F)c(Nc3ccc(Br)cc3F)c(C(=O)NOCCO)cc21` [PCM-0215228] was 22.8%. Still for that read-out and setting: for `COc1cc2c(cc1O)C[C@H]1c3cc(O)c(OC)cc3CC[N+]1(C)C2` (stereo partly drawn) [PCM-0216444] the value was 2.3%; for `CCCCC[C@H](O)CC(=O)CCc1ccc(O)c(OC)c1` [PCM-0214961], 1.6%.

For the compound `O=S(=O)(Cl)c1ccc(-c2ccccc2)cc1` [PCM-0216165], the inhibition at 10 µM was -8.5%.

In the case of `COc1cc2c(cc1O)C[C@H]1c3c(cc(O)c(OC)c3-2)CCN1C` [PCM-0216351], the inhibition at 10 µM was 6.9%. The same measure, in the same setting: the value for `C/C(=C\c1csc(C)n1)[C@@H]1C[C@@H]2O[C@]2(C)CCC[C@H](C)[C@H](O)[C@@H](C)C(=O)C(C)(C)[C@@H](O)CC(=O)O1` [PCM-0094998] was -9.3%. On the same count and under the same terms, for `CC[C@H](Nc1ncnc2nc[nH]c12)c1nc2cccc(F)c2c(=O)n1-c1ccccc1` [PCM-0095266] the value was -5.5%; for `CC(=O)c1cc2c(o1)C(=O)c1ccccc1C2=O` [PCM-0215544], -0.8%. Same read-out and setting: for `CCc1c2c(nc3ccc(OC(=O)N4CCC(N5CCCCC5)CC4)cc13)-c1cc3c(c(=O)n1C2)COC(=O)[C@]3(O)CC` [PCM-0086493] the value was 6.9%. Regarding `O=C(O)CC(O)(CC(=O)OCc1ccc(O[C@@H]2O[C@H](CO)[C@@H](O)[C@H](O)[C@H]2O)cc1)C(=O)OCc1ccc(O[C@@H]2O[C@H](CO)[C@@H](O)[C@H](O)[C@H]2O)cc1` (stereo partly drawn) [PCM-0216319], the inhibition at 10 µM is -28.6%. In the case of `CCCC(=O)OCOC(=O)C1=C(C)NC(C)=C(C(=O)OC)C1c1cccc(Cl)c1Cl` (stereo not drawn) [PCM-0095244], the inhibition at 10 µM came out at 18.7%. Still for that read-out and setting: for `C1CNCCNCCNCCN1` [PCM-0215094] the value was -4.7%; for `COc1ccc([C@@H]2Sc3ccccc3N(CCN(C)C)C(=O)[C@@H]2OC(C)=O)cc1` [PCM-0065036], 17.1%. On to `CCCCC(C)(O)C/C=C/[C@H]1[C@H](O)CC(=O)[C@@H]1CCCCCCC(=O)OC` (stereo partly drawn) [PCM-0215257], for which the inhibition at 10 µM is -7.8%. Still for that read-out and setting: the value for `CC(C)(O)[C@H]1CC[C@@](C)([C@H]2[C@@H](O)C[C@@]3(C)[C@@H]4C[C@H](O[C@@H]5O[C@H](CO)[C@@H](O)[C@H](O)[C@H]5O)[C@H]5C(C)(C)[C@@H](O[C@@H]6OC[C@@H](O)[C@H](O)[C@H]6O)CC[C@@]56C[C@@]46CC[C@]23C)O1` [PCM-0214684] was 5.4%; that for `NCc1c[nH]c(=S)n1[C@H]1CCc2c(F)cc(F)cc2C1` [PCM-0214705] was -17.1%.
